Test results published in US20230157975A1, “TREATMENT OF PULMONARY FIBROSIS” (REGENALL LIMITED, priority 2020, published 2023).

Assays:
[1] = tested on: bleomycin-induced lung fibrosis; conditions: rats; by downregulating the TGF-β1/Smad3 signalling pathway; cited from earlier work
Tendon injury = assay: Tendon injury, recovery following treatment with Vitamin A (Example 3); assay type: in vivo; conditions: Horse subject 1 (polo pony); oral 750,000 IU twice daily, at least 4 weeks; started approximately 20 days after injury
Source text: [table] Treatment with Vitamin A was initiated approximately 20 days after the initial injury. Retinyl palmitate (93.8% Retinol Equivalent) Oral 750,000 IU Twice daily (1,500,000 IU per day) Continuing (at least 4 weeks)

Compound	Effect on bleomycin-induced lung fibrosis [1]	Functional recovery (Tendon injury)	Size of the lesion by ultrasonography (Tendon injury)
CC1=C(/C=C/C(C)=C/C=C/C(C)=C/C(=O)O)C(C)(C)CCC1 [RA]	ameliorates bleomycin-induced lung fibrosis		
CCCCCCCCCCCCCCCC(=O)OC/C=C(C)/C=C/C=C(C)/C=C/C1=C(C)CCCC1(C)C [Vitamin A, Retinyl palmitate]		good	good reduction in the size of the lesion
